Converted amounts (≈) assume the structure as drawn. Like-named read-outs stand apart in the source and are kept apart here.
Tests used:
[1] = microsomes, 5 μM, pH 7.4
[2] = Solubility in artificial gastrointestinal tract solution; type: physicochemical; settings: for solubility at 1 h / solubility at 2 h: artificial gastrointestinal tract solution, thermodynamic from solid; for solubility at 1 h: fassgf or other biorelevant; for solubility at 2 h: fassif
Summary of the method: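 Two media were used: pH 1.2 NaCl/HCl with Triton X-100, and pH 6.5 phosphate buffer with sodium taurocholate and lecithin. Heated sample solutions were filtered to remove undissolved compound, diluted 1:1 with CH3CN, and solubility was measured by liquid chromatography.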

[3] = microsomes, 5 μM, pH 7.4; remark: listed apart in the source
[4] = target: human histamine 4 receptor (hH4R) (Homo sapiens (Human), UniProt Q9H3N8); assay: Binding affinity of human histamine 4 receptor (hH4R), [3H] labeled histamine displacement; settings: hH4R-overexpressed cell membrane, [3H] histamine
Summary of the method: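 Membranes of hH4R-overexpressing cells (25 μg) incubated with compound and [3H]histamine (diluted to 1 μM before addition) for 30 min at 27° C. Non-specific binding defined with histamine (100 μM before addition); bound radioligand collected by filtration on PEI-presoaked glass fibre, washed with 50 mM Tris-HCl pH 7.4, counted by scintillation (CPM).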

[5] = Mouse pharmacokinetics (oral); type: in vivo; settings: ICR mouse, 5 mg/mL solution at 10 mL/kg; for Cmax / AUC(0-inf) / half-life: plasma, 50 mg/kg; for AUC(0-inf): read-out: Mouse pharmacokinetics AUCinf; for half-life: read-out: Mouse pharmacokinetics t1/2 (converted)
Description: (§1) The weight of each ICR mouse and SD rat was properly 20˜30 g and 200˜300 g, and dosage of the compound of the present invention was 10 mL/kg for mice and 5 mL/kg for rats, and administered orally using Zonde. Blood collection was performed at 0.25, 0.5, 1, 2, 4, 6, 8 and 24 hours by orbital venous blood collection using a capillary tube coated with an anticoagulant, and then plasma was isolated using a centrifuge and kept in a freezer.
(§2) Plasma collected from animals and standard concentration material were pretreated using solid-phase extraction, and concentration of the compound of the invention was determined using a liquid chromatography mass spectrometer (Agilent HPLC, API-3000).
(§3) According to the resulting concentration value, the pharmacokinetics parameter was found using WinNonlin (Version 6.2) and half-life (t1/2), maximum blood concentration (Cmax) and infinite area under the curve (AUCinf) are shown in Tables 6 and 7 below.

[6] = target: human histamine 3 receptor (hH3R) (Homo sapiens (Human), UniProt Q9Y5N1); assay: Binding affinity of human histamine 3 receptor (hH3R), [3H] labeled N-α-methylhistamine displacement; settings: hH3R-overexpressed cell membrane, [3H] N-α-methylhistamine
Summary of the method: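 Membranes from cells overexpressing hH3R (15 μg) were incubated with compound and [3H]N-α-methylhistamine (20 μM stock) in 50 mM Tris-HCl pH 7.4, 5 mM MgCl2 for 30 min at 27 °C. Bound radioligand was counted by scintillation after filtration; 200 μM (R)(−)-α-methylhistamine stock defined non-specific binding; IC50 derived.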

[7] = Metabolic stability in human microsome; settings: human microsome 1 mg/mL, 5 μM compound, 1 mM NADPH
[8] = test system: histamine-induced itching, ICR mice; assay: Histamine-induced itching model in ICR mice; type: in vivo; settings: 50 mg/kg oral, histamine 300 nmol intradermal, 20 min count
Description: Female, ICR mice (8 weeks old) were purchased from OrientBio Co., Ltd. The animals were housed under conditions of controlled temperature (23±3° C.), humidity (50±5%) and lighting with food and water available ad libitum.
The hair was clipped using clippers (8000AD, THRIVE) over the rostral part of the back 24 hours before the experiment under anesthesia with isoflurane. Histamine (300 nmol) was dissolved in saline and a volume of 40 μL injected intradermally into the rostral part of the back. Mice were dosed with either vehicle (20% cyclodextrin in second distilled water) or the compound by orally administration. The Compound (50 mg/kg) dissolved in a vehicle (20% cyclodextrin in second distilled water) and administered orally at a volume of 10 mL/kg.
Mice (n=10 per group) were divided into 3 groups (normal group, control group and experimental group). The animals were randomized for similar body weight distribution. A vehicle or the compound was administered 20 minutes before injection of histamine or saline. Immediately after intradermal injection, the animals were returned to an acrylic cage (approximately 30×30×30 cm, access production) composed of four cells, to which they had been acclimated for at least 1 hour before the experiment, for observation of itch responses. A camera (Samsung, VLUUNV30) was positioned above the mice to record their response. Itch was measured by blinded counting of the number of scratching in the 20 min period immediately after the intradermal injection. A number of scratching was defined as 3 or more individual rapid scratch movements with the hind paws around the injection site (J. Allergy Clin. Immunol. 2007, 19(1), 176-183). All data were analyzed by using Excel and Prism, and all values are expressed as the mean±S.E.M. The inhibitory effect of compounds is shown as a percentage of the maximal response to histamine (100% control group).
Statistical analysis was analyzed using one-way ANOVA with Dunnett test. Values of p<0.05 were considered statistically significant.

[9] = Metabolic stability in mouse microsome; settings: mouse microsome 1 mg/mL, 5 μM compound, 1 mM NADPH
[10] = Rat pharmacokinetics (oral); type: in vivo; settings: SD rat, 2 mg/mL solution at 5 mL/kg
Description: as §1, §2, §3

[11] = test system: oxazolone-induced atopic dermatitis, Balb/c mice; assay: Oxazolone-induced atopic dermatitis model in Balb/c mice; type: in vivo; settings: 100 mg/kg, BID, oral, days 8-28
Description: Female, Balb/c mice (6 weeks old, 20±3 g) were purchased from OrientBio Co., Ltd. The animals were housed under conditions of controlled temperature (23±3° C.), humidity (50±5%) and lighting with food and water available ad libitum.
On the beginning day (day 1), mice were sensitized by the topical application of 50 μL of 1% oxazolone in acetone and olive oil (4:1 ratio) on the abdominal skin. On day 8, 10, 12, 15, 17, 19, 22, 24 and 26, 25 μL of 0.2% oxazolone was applied topically on the inner side of right ear of each mouse. Between days 8 and 28, the compound of the invention was administered orally (10 mL/kg) twice a day in the morning and afternoon, and on days 12, 19 and 27, the thickness of the right ear of the mouse was measured. On day 28, the ear tissue of the mouse was extracted, fixed in 10% formalin solution, and then a tissue slide was prepared, stained with H&E (hematoxylin & eosin), and then the thickness of the ear was observed (Journal of Investigative Dermatology, 2008, 128, 79-86). Statistical analysis was analyzed using one-way ANOVA with Dunnett test. Values of p<0.05 were considered statistically significant.

[12] = test system: histamine-induced mast cell migration (trachea); assay: Histamine-induced mast cell migration; type: in vivo, Balb/c mice; settings: 20 mg/kg oral, 0.1 M histamine aerosol, 2 days
Description: Female, Balb/c mice (7 weeks old, 20±3 g) were purchased from OrientBio Co., Ltd.
The animals were housed under conditions of controlled temperature (23±3° C.), humidity (50±5%) and lighting with food and water available ad libitum.
Mice were dosed with either vehicle (20% cyclodextrin in second distilled water) or the compound by orally administration. The Compound (20 mg/kg) dissolved in a vehicle and administered orally at a volume of 10 mL/kg. After 15 minutes, mice were challenged by a 20 min aerosol inhalation of PBS (phosphate buffered saline) or 0.1 M histamine (dissolving in PBS). This process was repeated for 2 days. After a final challenge, the tracheae were cleared of blood via perfusion of PBS and tracheae were extracted, the tracheae were fixed in 10% (w/v) formaldehyde for subsequent paraffin cross-sectioning and toluidine blue staining. Total mast cells were calculated, and a mean was reported. (The Journal of Pharmacology and Experimental Therapeutics, 2004, 309, 404-413). Statistical analysis was analyzed using one-way ANOVA with Dunnett test. Values of p<0.05 were considered statistically significant.

[13] = target: human serotonin 3 receptor (human 5-HT3 receptor) (Homo sapiens (Human), UniProt P46098); assay: Binding affinity of human serotonin 3 receptor (performed at Cerep)
Description: The binding assays of the human serotonin 3 receptor for present invention were performed at Cerep (Poitiers, France), and the results of analysis are shown in Table 3.

[14] = first solution pH 1.2, 2 mg/mL sample, 37° C. 1 hour
[15] = second solution pH 6.5, 2 mg/mL sample, 37° C. 2 hours

Sequence of human histamine 3 receptor (hH3R) (Q9Y5N1 whole entry): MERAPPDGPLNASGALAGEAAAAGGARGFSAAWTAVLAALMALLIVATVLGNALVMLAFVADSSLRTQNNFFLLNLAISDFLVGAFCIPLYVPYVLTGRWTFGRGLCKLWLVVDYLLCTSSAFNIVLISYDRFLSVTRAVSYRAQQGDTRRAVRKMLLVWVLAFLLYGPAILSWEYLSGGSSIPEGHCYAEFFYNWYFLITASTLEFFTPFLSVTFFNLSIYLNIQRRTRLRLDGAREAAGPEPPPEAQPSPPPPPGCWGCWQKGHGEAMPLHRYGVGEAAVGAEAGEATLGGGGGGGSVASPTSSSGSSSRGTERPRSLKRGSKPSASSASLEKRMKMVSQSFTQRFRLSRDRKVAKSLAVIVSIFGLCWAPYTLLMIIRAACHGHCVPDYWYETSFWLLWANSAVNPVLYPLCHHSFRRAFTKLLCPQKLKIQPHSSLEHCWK
Sequence of human serotonin 3 receptor (human 5-HT3 receptor) (P46098 24-478): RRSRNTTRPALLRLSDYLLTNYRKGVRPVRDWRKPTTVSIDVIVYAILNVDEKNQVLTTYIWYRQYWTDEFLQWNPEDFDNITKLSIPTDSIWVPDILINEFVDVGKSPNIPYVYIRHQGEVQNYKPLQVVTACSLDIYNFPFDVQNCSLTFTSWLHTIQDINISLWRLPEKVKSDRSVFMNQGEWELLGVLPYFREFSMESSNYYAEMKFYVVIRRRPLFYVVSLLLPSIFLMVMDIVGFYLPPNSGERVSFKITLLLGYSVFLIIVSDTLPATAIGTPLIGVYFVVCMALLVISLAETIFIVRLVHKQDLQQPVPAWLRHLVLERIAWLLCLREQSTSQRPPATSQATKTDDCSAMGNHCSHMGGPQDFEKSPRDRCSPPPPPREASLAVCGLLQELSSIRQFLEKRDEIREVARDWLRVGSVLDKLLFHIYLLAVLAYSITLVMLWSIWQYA

| solubility at 1 h [2, 14] | solubility at 2 h [2, 15] | Cmax [5] | AUC(0-inf) [5] | half-life [5] | IC50 [6] | Metabolic stability (CLh. int), Human [7] | Metabolic stability (CLh. int), Mouse [9] | Structure (SMILES) | IC50 [4] | Mast cell migration (% change from control group) [12] | further results |
| --- | --- | --- | --- | --- | --- | --- | --- | --- | --- | --- | --- |
| 2010 µg/mL (≈ 6.33 mM) | 1980 µg/mL (≈ 6.23 mM) | 11700 ng/mL | 22400 ng·h/mL | 1.79 h | > 100000 nM | 5190 µL/min/mg | 28630 µL/min/mg | Cc1nc2c3cc(Cl)cnc3nc(N3CCN(C)CC3)n2n1 [Compound 31, 9-Chloro-2-methyl-5-(4-methylpiperazin-1-yl)pyrido[3,2-e][1,2,4]triazolo[1,5-c]pyrimidine] | 16 nM | – | Number of scratching (% changes from control group) [8]: 89.3^1% |
| 1930 µg/mL (≈ 6.87 mM) | 1380 µg/mL (≈ 4.94 mM) | 9760 ng/mL | 14000 ng·h/mL | 1.17 h | > 100000 nM | 4160 µL/min/mg | 4590 µL/min/mg | CNC1CN(c2nc3ncc(C#N)cc3n3cnnc23)C1 [Compound 25, 4-(3-(Methylamino)azetidin-1-yl)pyrido[2,3-e][1,2,4]triazolo[4,3-a]pyrazin-8-carbonitrile] | 100 nM | 48.4^1% | inhibition at 10 µM ([13]; read-out: % inhibition degree at 10 μM, human serotonin 3 receptor (h5-HT3R)): 0%; IC50 ([13]; read-out: Binding affinity (IC50) of human serotonin 3 receptor (h5-HT3R)): > 10000 nM; Cmax ([10]; plasma, 10 mg/kg): 970 ng/mL; AUC(0-inf) ([10]; plasma, 10 mg/kg, read-out: Rat pharmacokinetics AUCinf): 2920 ng·h/mL; half-life ([10]; plasma, 10 mg/kg, read-out: Rat pharmacokinetics t1/2 (converted)): 2.21 h |

| Structure (SMILES) | solubility at 1 h [2, 14] | solubility at 2 h [2, 15] | Cmax [5] | AUC(0-inf) [5] | half-life [5] | IC50 [6] | Metabolic stability (CLh. int), Human [7] | Metabolic stability (CLh. int), Mouse [9] | IC50 [4] | Mast cell migration (% change from control group) [12] | further results |
| --- | --- | --- | --- | --- | --- | --- | --- | --- | --- | --- | --- |
| Clc1cnc2nc(N3CCN4CCCC4C3)c3nncn3c2c1 (centres unmarked) [Compound 29, 8-Chloro-4-(hexahydropyrrolo[1,2-a]pyrazin-2(1H)-yl)pyrido[2,3-e][1,2,4]triazolo[4,3-a]pyrazine] | 1560 µg/mL (≈ 4.73 mM) | 1990 µg/mL (≈ 6.04 mM) | – | – | – | – | – | – | 49 nM | – | Metabolic stability (CLh. int), Mouse [1]: 12070 µL/min/mg; Metabolic stability (CLh. int), Human [3]: 3950 µL/min/mg |
| CN1CCN(c2nc3ccc(Cl)cc3n3cnnc23)CC1 [reference compound] | – | – | – | – | – | 9000 nM | 10990 µL/min/mg | 111630 µL/min/mg | 22 nM | 23.1^1% | Rat pharmacokinetics AUCinf [10]: 1060 ng·h/mL; Rat pharmacokinetics Cmax [10]: 490 ng/mL; Rat pharmacokinetics t1/2 [10]: 1.09 h; Mouse pharmacokinetics AUCinf [5]: 6650 ng·h/mL; Mouse pharmacokinetics Cmax [5]: 3840 ng/mL; Mouse pharmacokinetics t1/2 [5]: 3.49 h; Ear epidermis thickness (% change from control group) [11]: 8.0%; Solubility, First solution (pH = 1.2) [2, 14]: 1708.3 μg/mL; Solubility, Second solution (pH = 6.5) [2, 15]: 320.1 μg/mL |
